{"source": "patent US20080234132A1", "about": "“Microcin B17 Analogs And Methods For Their Preparation And Use” (priority 2004, published 2008)", "key": {"[1]": {"biological_target": "T1, E. coli DNA gyrase A2B2, MG1655 wild type (Escherichia coli, UniProt P0AES4+P0AES6)", "type": "biochemical", "from_the_text": "ATP hydrolysis by DNA gyrase was linked to the oxidation of NADH using a pyruvate Kinase (PK)/lactate dehydrogenase (LDH) coupled enzyme assay and measured at 340 nm on a Spectramax Plus Microplate. […] DMSO was kept constant at 2%.\nExperimental data were fitted and treated with the following equation:\nwhere L represents the inhibitor concentration, v represents the rate of the ATPase reaction, and v0 represents the rate in absence of inhibitor. The IC50 is deduced from the equation 2:"}, "[2]": {"biological_target": "E. coli DNA gyrase A2B2, W751R mutant (Trp751→Arg in DNA gyrase B subunit) (Escherichia coli, UniProt P0AES4+P0AES6, W751R)", "details": "FIG. 18", "quoted_text": "ATP hydrolysis by DNA gyrase was linked to the oxidation of NADH using a pyruvate Kinase (PK)/lactate dehydrogenase (LDH) coupled enzyme assay and measured at 340 nm on a Spectramax Plus Microplate. The ATPase assay was similar to that described previously by Pierrat & Maxwell, 2005. Each 100 μL reaction contained 50 mM Tris.HCl (pH 7.5), 24 mM KCl, 5 mM MgCl2, 6.5% (w/w) glycerol, 4 mM dithiotreitol, 0.4 mM NADH, 0.8 mM phosphorenol-pyruvate, 1% (w/w) PK/LDH mixture (Sigma), 51 nM-153 nM gyrase enzyme and the drug tested at varying concentrations. DMSO was kept constant at 2%. The reactions were measured in the presence or absence of linear DNA pBR322 at fixed concentration of 8.4 nM. Reactions were initiated by the addition of 10 mM Mg.ATP and measured at 25° C. over 1.5 hours.\nDNA-dependent ATPase reactions were tested with the wild type enzyme A2B2 and the W751R mutant enzyme. In these DNA-dependent ATPase assays, the concentration of wild type A2B2 is 51 nM, the concentration of W751R mutant enzyme is 106 nM."}, "[3]": {"biological_target": "DNA gyrase (MG 1655 A2B2) (Escherichia coli, UniProt P0AES4+P0AES6)", "assay": "biochemical", "parameters": "species or system E. coli", "quoted_text": "GyrA and GyrB were added to a solution containing 35 mM Tris.HCl (pH, 7.5), 24 mM KCl, 4 mM MgCl2, 1.8 mM spermidine, 6.5% glycerol, 0.36 mg/mL BSA, 9 μg/mL tRNA, 5 mM DTT, 2 mM ATP and 24 nM relaxed pBR322 DNA. […] The reactions were incubated at 25° C., and at each time point 30-μl aliquots were quenched with 1 μL of 10% SDS. An equal volume of chloroform/isoamyl alcohol (24:1) and a half volume of loading buffer STEB (40% sucrose/100 mM Tris.HCl, pH 7.5/100 mM EDTA/2 mg/ml bromophenol blue) were added, and the mixtures then were vortexed and centrifuged for 1 min at 13,000 rpm. The aqueous phase was loaded onto 1% agarose, TAE (40 mM Tris-acetate, 1 mM EDTA) gels and were run at either 30 V overnight in TAE (in the cold room) or 70 V for 2.5 hours. The gels were stained for about 20 min in TAE containing 1 μg/ml ethidium bromide followed by destaining in multiple washes of TAE."}, "DNA gyrase": {"biological_target": "DNA gyrase (Escherichia coli, UniProt P0AES4+P0AES6)", "type": "biochemical, E. coli", "quoted_text": "GyrA and GyrB were added to solutions containing 35 mM Tris.HCl (pH, 7.5), 24 mM KCl, 4 mM MgCl2, 1.8 mM spermidine, 6.5% glycerol, 0.36 mg/mL BSA, 9 μg/mL tRNA, 5 mM DTT, 2 mM ATP and 10 nM relaxed pBR322 DNA. […] The reactions were incubated at 25° C., and at each time point 30-μl aliquots were quenched with 1 μL of 10% SDS and 2 μL of 2 mg/ml proteinase K. Quenched aliquots were kept on ice until the experiment was completed, at which time they were incubated at 37° C. for half an hour. An equal volume of chloroform/isoamyl alcohol (24:1) and a half volume of loading buffer STEB (40% sucrose/100 mM Tris HCl, pH 7.5/1 mM EDTA/2 mg/ml bromophenol blue) were added, and the mixtures then were vortexed and centrifuged for 1 min at 13,000 rpm. The aqueous phase was loaded onto 1% agarose, TAE (40 mM Tris-acetate, 1 mM EDTA) gels that contained 1 μg/ml ethidium bromide and were run at either 30 V overnight in TAE containing 1 μg/ml ethidium bromide (in the cold room) or 70 V for 2.5 hours in TAE containing 1 μg/ml ethidium bromide."}, "E. coli MG1655": {"system": "E. coli MG1655", "assay": "Halo assay, wild-type E. coli MG1655", "type": "cell-based", "quoted_text": "Lawns of cells were prepared by spreading, on top of a LB+Agar plate, 3 ml of melted LSS medium (half-agar strength: 0.3 g Agar/50 ml LB) inoculated with 100 μl of a 10 ml LB overnight culture of E. coli cells grown at 37° C. […] The plates were incubated at 37° C. overnight and growth inhibition was qualitatively analysed by measuring the diameter of each halo."}, "DNA gyrase A2B2": {"biological_target": "DNA gyrase A2B2 (Escherichia coli, UniProt P0AES4+P0AES6)", "assay": "biochemical", "type": "biochemical, E. coli", "quoted_text": "Relaxation assays were performed in a manner analogous to that described by Pierrat et al., 2005. Briefly, relaxation assays were performed as for the supercoiling assay but with some modifications: ATP and spermidine were omitted. Gyr A and Gyr B were added to a solutions containing 35 mM of Tris.HCl (pH=7.5), 24 mM of KCl, 4 mM of MgCl2, 1.8 mg/mL of spermidine, 6.5% of glycerol, 0.36 mg/mL of BSA, 9 μg/mL of tRNA, 5 mM of DTT, 2 mM of ATP and 24 nM of relaxed pBR322 DNA. […] The amount of DMSO was kept constant at 3.33%. The reactions were incubated at 25° C., and at each time point 30 μL aliquots were quenched with the addition of an equal volume of chloroform/isoamyl alcohol (24:1) and a half volume of loading buffer STEB (40% sucrose/100 mM Tris HCl, pH 7.5/100 mM EDTA/2 mg/mL bromophenol blue). The mixtures then were vortexed and centrifuged for 1 minute at 13,000 rpm. The aqueous phase was loaded onto 1% agarose, TAE (40 mM Tris-acetate, 1 mM EDTA) gels and were run at either 30 V overnight in TAE (in the cold room) or 70 V for 2.5 hours in TAE. The gels were stained for about 20 minutes in TAE containing 1 μg/mL ethidium bromide followed by destaining in multiple washes of TAE. The data were analysed using Syngel software."}, "[4]": {"system": "A. thaliana ecotype Columbia seeds", "assay": "Seed germination of A. thaliana", "type": "in vivo, Arabidopsis thaliana"}, "[5]": {"system": "Arabidopsis thaliana ecotype Columbia plants", "assay": "Effects on A. thaliana seedlings and plants", "type": "in vivo", "method": "(§1) The microcin derivatives were tested for efficacy in planta against Arabidopsis thaliana ecotype Columbia according to known methods (see Wall et al., 2004). Seeds were germinated on sterile media containing the appropriate peptide and the effects were observed over a three week period. […] In […] seeds, such as A. thaliana, during imbibition the quiescent seed rapidly resumes metabolic and respiratory activity. One of the first steps, as part of this process, is the initiation of mitochondrial DNA synthesis which requires DNA gyrase and which may explain the exquisite sensitivity of the germinating seeds to Peptides 1 and 2.\n(§2) The leaf tissue initially turned yellow, followed by rapid necrosis of the tissue (see FIG. 32). […] The high hydrophility of Peptide 1 may preferentially allow the compound to readily diffuse through the leaf cuticle and epidermis to the mesophyll and phloem below.\n(§3) The heterocyclic compounds were also spotted onto the leaves of 4 week old, tissue culture grown Arabidopsis thaliana ecotype Columbia plants (see FIG. 34, panels A-1). […] The browning and necrosis diffused through the full thickness of the leaf over the next 60 minutes (see FIG. 34, panel F) and spread towards the meristem (see FIG. 34, panels E, F, H). Complete necrosis of the meristem and newly emerged leaves, where organellar replication takes place, was complete within 24 hours (see FIG. 34, panel F)."}, "[6]": {"system": "Arabidopsis thaliana ecotype Columbia seeds", "assay": "Seed germination, Arabidopsis thaliana", "type": "in vivo", "details": "three week period", "excerpt": "Germination begins when the dormant dry seed begins to take up water (imbibition from the surface sterilization process). Primary roots emerge while the seed is in the culture media. Subsequently the hypocotyls emerge and elongate to pull the cotyledons above the culture media surface. After straightening up, the cotyledons arrange into an horizontal position, as shown in the Figure, and, then spread apart in order to expose the first true leaves and the apical meristem (growing tip).\nas §1"}, "[7]": {"system": "Arabidopsis thaliana ecotype Columbia plants", "assay": "Effects on whole plants/seedlings, Arabidopsis thaliana", "type": "in vivo", "excerpt": "as §2, §3"}, "Solubility": {"assay": "Solubility", "details": "water"}, "HT-29 cells": {"system": "HT-29 cells", "assay": "MTT cell viability assay, HT-29", "type": "cell-based, human", "details": "Homo sapiens, HT-29; 24 hours, MTT; read-out: In vivo HT29 Cells, approximate IC50", "quoted_text": "(§4) Human cell cultures were initiated from frozen cell stocks (the gift of Dr J. Gavrilovic, UEA). […] Both human cell lines form adherent cultures and were maintained at 37° C. in T25 culture vessels as 10 mL cultures in CO2 Independent Media containing 10% foetal bovine serum (EU approved), 4 mM L-glutamine, penicillin/streptomycin (Invitrogen). […] Media was renewed every three days.\n(§5) After incubation with MTT and solubilization, the resulting coloured solution is quantified using a scanning spectrophotometer. […] Cell viability was then determined by addition of MTT reagent (20 μL) in each well, as per manufacturer's instructions and incubated for a further 4 hours. Solubilization solution (100 μL) was added per well and the plates incubated overnight at 37° C. The plates were read in a spectrophotometer (scanning from 500-650 nm, signal peak at 570 nm)."}, "HeLa cells": {"system": "HeLa cells", "assay": "MTT cell viability assay, HeLa", "type": "cell-based, human", "details": "Homo sapiens, HeLa; 24 hours, MTT; read-out: In vivo HeLa Cells, approximate IC50", "quoted_text": "as §4, §5"}, "Human topoisomerase IIα": {"biological_target": "Human topoisomerase IIα (Homo sapiens, UniProt P11388)", "sequence (P11388 whole entry)": "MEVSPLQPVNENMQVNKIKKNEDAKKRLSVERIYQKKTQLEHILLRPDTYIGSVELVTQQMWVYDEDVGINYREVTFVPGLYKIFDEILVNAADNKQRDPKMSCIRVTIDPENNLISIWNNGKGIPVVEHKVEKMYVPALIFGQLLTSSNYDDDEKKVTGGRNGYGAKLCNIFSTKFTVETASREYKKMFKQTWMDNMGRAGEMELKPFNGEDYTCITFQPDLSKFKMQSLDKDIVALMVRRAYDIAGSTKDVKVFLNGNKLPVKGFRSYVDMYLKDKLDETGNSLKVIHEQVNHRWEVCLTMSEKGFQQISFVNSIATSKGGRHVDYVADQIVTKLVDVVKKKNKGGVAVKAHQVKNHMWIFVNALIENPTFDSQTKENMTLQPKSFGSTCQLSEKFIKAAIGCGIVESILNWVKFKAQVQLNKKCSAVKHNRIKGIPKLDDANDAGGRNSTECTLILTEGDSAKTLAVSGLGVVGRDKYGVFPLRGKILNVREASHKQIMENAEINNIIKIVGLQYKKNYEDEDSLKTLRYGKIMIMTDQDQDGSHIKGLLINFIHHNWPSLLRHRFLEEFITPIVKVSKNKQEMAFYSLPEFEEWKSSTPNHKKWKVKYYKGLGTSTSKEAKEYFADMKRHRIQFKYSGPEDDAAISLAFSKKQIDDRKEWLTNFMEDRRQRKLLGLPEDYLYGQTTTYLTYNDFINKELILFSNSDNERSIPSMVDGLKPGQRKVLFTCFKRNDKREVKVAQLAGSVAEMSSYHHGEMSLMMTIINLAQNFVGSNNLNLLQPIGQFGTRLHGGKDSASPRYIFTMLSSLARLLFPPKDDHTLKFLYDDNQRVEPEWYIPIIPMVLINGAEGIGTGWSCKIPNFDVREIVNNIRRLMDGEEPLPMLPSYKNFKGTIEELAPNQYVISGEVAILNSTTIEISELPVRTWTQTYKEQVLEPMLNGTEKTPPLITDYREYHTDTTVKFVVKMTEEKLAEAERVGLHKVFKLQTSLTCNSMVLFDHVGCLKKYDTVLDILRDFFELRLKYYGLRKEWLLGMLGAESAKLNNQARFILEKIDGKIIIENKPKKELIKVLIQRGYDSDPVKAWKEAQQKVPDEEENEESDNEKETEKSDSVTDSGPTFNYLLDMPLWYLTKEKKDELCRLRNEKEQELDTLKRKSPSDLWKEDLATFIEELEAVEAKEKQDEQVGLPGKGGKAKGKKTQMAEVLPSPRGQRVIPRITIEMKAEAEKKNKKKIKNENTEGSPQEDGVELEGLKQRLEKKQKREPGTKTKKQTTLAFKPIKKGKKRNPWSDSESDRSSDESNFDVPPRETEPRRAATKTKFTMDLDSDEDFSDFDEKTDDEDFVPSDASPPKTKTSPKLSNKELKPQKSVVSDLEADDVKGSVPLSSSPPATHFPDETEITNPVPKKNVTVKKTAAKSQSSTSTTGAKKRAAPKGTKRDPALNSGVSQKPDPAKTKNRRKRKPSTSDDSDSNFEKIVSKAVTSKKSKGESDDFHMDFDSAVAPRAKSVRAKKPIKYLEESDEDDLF", "assay": "Human topoisomerase IIα-mediated relaxation assay", "type": "biochemical", "parameters": "purchased TopoGEN Inc", "details": "topoisomerase assays (FIG. 27)", "method": "Human Topoisomerase IIα-mediated relaxation assays and decatenation assays were performed as per the manufacturer's instructions in a total of 20 μL. Relaxation assays contained Topoisomerase IIα (4.3 nM), 50 mM Tris.HCl pH 8,120 mM KCl, 10 mM MgCl2, 0.5 mM DTT, 0.5 mM ATP, 4.6 nM of supercoiled pBR322 DNA, and inhibitor where appropriate. Decatenation assays substituted the supercoiled DNA with 200 ng catenated kinetoplast DNA.\nAll in vitro reactions were incubated at 37° C. for 30 minutes. The DMSO concentration in each reaction was kept constant at 3.33%. Reactions were quenched with the addition of an equal volume of phenol/chloroform/isoamyl alcohol (25:24:1) and one tenth volume of loading buffer containing 40% sucrose, 100 mM Tris.HCl pH 7.5, 100 mM EDTA, 2 mg/mL bromophenol blue. The proteins were precipitated by vortexing, followed by centrifugation for 5 minutes at 16 000 g. The aqueous phase was loaded onto 1% agarose gels in Tris-acetate and were electrophoresed at 60 V for three hours in Tris-acetate buffer. The gels were stained in 1 μg/mL ethidium bromide. The gels were visualised using UV light and were documented and analysed using Syngene software."}, "[8]": {"biological_target": "T1, E. coli DNA gyrase A2B2, MG1655 wild type", "details": "Flatman et al., 2004; cited from earlier work"}, "[9]": {"biological_target": "T2, E. coli DNA gyrase A2B2, wild type (Escherichia coli, UniProt P0AES4+P0AES6)", "details": "Flatman et al., 2004; cited from earlier work"}, "[10]": {"biological_target": "T2, E. coli DNA gyrase A2B2, wild type", "details": "Flatman et al., 2004; cited from earlier work", "remark": "listed apart in the source"}, "[11]": {"biological_target": "T1, E. coli DNA gyrase A2B2, MG1655 wild type", "details": "Flatman et al., 2004; cited from earlier work", "remark": "listed apart in the source"}}, "note": "*1 amine or outer side, *2 acyl side, *3 side chain or, on linkers, in order; H or OH if unused. Where a SMILES comes first, the peptide text is derived from it. [ ]: non-standard residue; d: D form. X2 = O=C(c1c[nH]c(CN[*:1])c1)[*:2]", "data": [{"molecule": "O=C(O)c1cn(C2CC2)c2cc(N3CCNCC3)c(F)cc2c1=O", "note": "[Ciprofloxacin]", "values": [{"measurement": "Inhibition of DNA-dependent ATPase", "setting": "[1]", "result": "slow down this ATPase hydrolysis rate of both wild type and mutant enzyme"}, {"measurement": "DNA-dependent ATPase, W751R mutant (novobiocin, ciprofloxacin)", "setting": "[2]", "result": "slow down this ATPase hydrolysis rate of both wild type and mutant enzyme"}]}, {"molecule": "C[C@H](NC(=O)CNC(=O)CNC(=O)c1c[nH]c(CNC(=O)[C@H](C)NC(=O)CNC(=O)[C@@H](N)CCC(N)=O)c1)C(=O)O", "note": "[Peptide 2] (H-QGA[X2]GGA-OH)", "values": [{"measurement": "supercoiling activity relative to Peptide 1", "setting": "[3]; FIG. 13", "result": "about half as active as Peptide 1"}, {"measurement": "IC50", "setting": "[3]; Supercoiling (IC50 μM) MG 1655 A2B2, Table 4", "result": "> 100", "unit": "µM"}, {"measurement": "stabilisation of the cleaved DNA-enzyme (cleavage) complex", "setting": "DNA gyrase; Peptide 1 at 100 μM, [A2B2]=30 nM, up to 1 h", "result": "Neither Peptide 1 nor Peptide 2 stabilise"}, {"measurement": "Cleavage (IC50 μM)", "setting": "DNA gyrase; Table 4", "result": "inactive"}, {"measurement": "haloassay activity relative to Peptide 1", "setting": "E. coli MG1655", "result": "twice less active than Peptide 1"}, {"measurement": "IC50", "setting": "DNA gyrase A2B2", "result": "> 100", "unit": "µM"}, {"measurement": "concentration at which the relaxation reaction is inhibited", "setting": "DNA gyrase A2B2; A2B2 70 nM, MccB17 tested at 25 μM", "result": 200, "unit": "µM"}, {"measurement": "effect on seed germination", "setting": "[4]; 100 μM", "result": "only a bleaching effect"}, {"measurement": "effect on seed germination", "setting": "[4]; 150 μM", "result": "seed germination occurred but the growth is slower compared with the untreated seeds"}, {"measurement": "effects on 6-week old seedlings and germinating seeds", "setting": "[4]; 200 μM", "result": "the same as the effects observed for 100 μM Peptide 1"}, {"measurement": "activity against seed germination", "setting": "[4]; concentrations tested", "result": "able to inhibit germination"}, {"measurement": "potency relative to Peptide 1 in plant assays", "setting": "[4]; in vivo", "result": "half the potency of Peptide 1"}, {"measurement": "effect on 4-week old plants transferred to media containing the compound", "setting": "[5]; 100 μM Peptide 1, 200 μM Peptide 2", "result": "induced tumourous, undifferentiated cell growth"}, {"measurement": "effect on 6-week old seedlings", "setting": "[5]; in vivo", "result": "induces tumour-like growth"}, {"measurement": "Inhibition of seed germination", "setting": "[6]", "result": "able to inhibit germination of the seeds"}, {"measurement": "Effect on 4-week old plants", "setting": "[7]; 200 μM", "result": "induced tumourous, undifferentiated cell growth in the meristematic region and petioles"}, {"measurement": "effect on 6-week old seedlings", "setting": "[7]; observed at 150 μM (FIG. 26)", "result": "induces tumour-like growth near the apical meristem zone"}, {"measurement": "solubility", "setting": "Solubility", "result": 1000, "unit": "µM"}]}, {"molecule": "NCc1nc(C(=O)O)cs1", "note": "[deBoc-thiazole]", "values": [{"measurement": "IC50", "setting": "HT-29 cells", "result": "~15", "unit": "µM"}, {"measurement": "IC50", "setting": "HeLa cells", "result": "~75", "unit": "µM"}, {"measurement": "IC50 of deBoc-thiazole compared with thiazole compound", "setting": "Human topoisomerase IIα", "result": "no difference to the calculated IC50 values"}]}, {"molecule": "CC(=O)O[C@@H]1[C@@H](C)O[C@@H](c2ccc3c(c2O)[C@@H](O)[C@]24O[C@@]2(C3=O)[C@@]2(O)C(=O)C=C(C)C[C@@]2(O)C[C@@H]4O)C[C@H]1OC(=O)/C=C/C=C/C=C/C=C/C(=O)Nc1c(O)c2ccc(O)c(Cl)c2oc1=O", "note": "[simocyclinone D8]", "values": [{"measurement": "Inhibition of supercoiling reaction", "setting": "[8]", "result": "inhibits the supercoiling and relaxation reactions"}, {"measurement": "Cleavage complex formation / quinolone cleavage", "setting": "[9]", "result": "does not stimulate the gyrase-dependent cleavage complex formation but antagonizes quinolone cleavage"}, {"measurement": "Inhibition of relaxation reaction", "setting": "[10]", "result": "inhibits the supercoiling and relaxation reactions"}, {"measurement": "Inhibition of ATPase reaction", "setting": "[11]", "result": "not the ATPase reaction"}]}]}
